Values after ≈ are worked out from the molar mass of the structure shown.
How the values were obtained:
[1] = Thermodynamic aqueous solubility, shake-flask method and HPLC-UV; assay type: physicochemical; conditions: phosphate-buffered saline, aqueous buffer, thermodynamic from solid, PBS pH 7.4, 25°C, up to 72 h, HPLC-UV, logS of molar solubility [M]
Procedure: Phosphate-buffered saline pH 7.4 was prepared according to the European Pharmacopeia 10.4 by dissolving 2.38 g sodium monohydrogen phosphate dodecahydrate, 0.19 g potassium dihydrogen phosphate and 8.0 g sodium chloride in demineralised water (to a total volume of 1000 mL). The pH was adjusted to a value of 7.4 with hydrochloric acid. The buffer was filtered through a 0.45 μm membrane filter (Chromafil® Xtra PES-45/25) before use.
The thermodynamic aqueous solubility was determined by a miniaturised shake-flask method. […] A negative control with the buffer (400 μL) was incubated for every time point and measured likewise. After incubation for 24 h, 48 h and 72 h, the vials were checked for undissolved compound; then the filter plunger was punched into the vial for filtration. […] The calibration curve was obtained from at least three dilutions and five measuring points from a DMSO stock solution of the respective compound.

[2] = tested on: murine macrophages J774.A1; experiment: Cytotoxicity assays on murine macrophages (WST-1); assay type: cell-based; conditions: error 1 SD
Procedure: Cytotoxicity assays on murine macrophages. Murine macrophages from the cell line J774.A1 (ATCC® TIB-67TM) were cultivated under a humidified 5% CO2/95% air atmosphere at 37°C in Dulbecco’s modified Eagle’s medium (DMEM) supplemented with 10% (v/v) FBS, 10 U/mL penicillin and 10 μg/mL streptomycin. The experimental protocol for the determination of EC50 values was identical as described by Demoro et al. 2012 [71], with the following change: 200 μL/well of a cell suspension at 6 × 10^4 cells per mL was added in a 96-well culture plate and washed with 150 μL of DMEM. The cytotoxicity of the compounds was evaluated in triplicate using the WST-1 reagent (Roche). The control treatment included cells cultured in the presence of DMSO 1% (v/v). Absorbance at 450 nm (Ai 450 nm), corresponding to the formazan dye produced by metabolically active cells, was measured with an EL 800-microplate reader. The corrected absorbance values at 450 nm (Ai c 450 nm) were obtained by subtracting the corresponding absorbance value at 630 nm (Ai 630 nm) and the blank average (Ablank 450 nm): Aic450nm=Ai450nm-Ai630nm-Ablank450nm
Cell viability (%), with the number of viable cells proportional to the absorbance, was calculated as follows: cellviability%=Aic450nm/Anegativecontrolc450nm*100%
Ai c 450 nm refers to an absorbance obtained from cells treated with compound I at a specific concentration (i) and Anegative control c 450 nm refers to an absorbance obtained from cells in the DMSO-treated control (negative control). The errors were calculated using error propagations and are expressed as one SD, estimated as σ^n−1.

| Compound | solubility thermodynamic at 72 h [1] [M] | Macrophage toxicity [% at stated conc.] ([2]; % cell death at 60 μM) [%] | Macrophage toxicity [% at stated conc.] ([2]; % cell death at 50 μM) [%] |
| --- | --- | --- | --- |
| CNCCNC(=O)CN1C(=O)Cc2c([nH]c3ccc(I)cc23)-c2ccc(Cl)cc21 [1f, 2-(3-Chloro-9-iodo-6-oxo-7,12-dihydrobenzo[2,3]azepino[4,5-b]indol-5(6H)-yl)-N-[2-(methylamino)ethyl]acetamide] | 1.7e-06 (≈ 0.888 µg/mL) | 105.8 ± 0.2 | – |
| CNCCNC(=O)CN1C(=O)Cc2c([nH]c3ccc(Cl)cc23)-c2ccc(Cl)cc21 [1g, 2-(3,9-Dichloro-6-oxo-7,12-dihydrobenzo[2,3]azepino[4,5-b]indol-5(6H)-yl)-N-[2-(methylamino)ethyl]acetamide] | 1.29e-05 (≈ 5.56 µg/mL) | – | 101.9 ± 3.6 |
| CNCCNC(=O)CN1C(=O)Cc2c([nH]c3ccc(C(F)(F)F)cc23)-c2ccc(Cl)cc21 [1h, 2-(3-Chloro-6-oxo-9-trifluoromethyl-7,12-dihydrobenzo[2,3]azepino[4,5-b]indol-5(6H)-yl)-N-[2-(methylamino)ethyl]acetamide] | < 2.95e-07 | 102.8 ± 0.4 | – |
